Patent US12180146B2, “Antihypertensive polyol compound and derivative thereof” (TAO PHARMACEUTICAL (SUZHOU) CO., LTD, priority 2020, dated 2024)

Key:
[1] = tested on: monocrotaline-induced pulmonary hypertension model rats (MCT-PAH); test: Monocrotaline-induced pulmonary hypertension model rats, aerosol inhalation treatment; format: in vivo, SD rats; conditions: 30 mg/kg, inh, 28 days
Method: A pulmonary hypertension animal model of SD rats was established by subcutaneous injection of monocrotaline (MCT). The compound 1 was administered by aerosol inhalation for treatment. The pulmonary artery hemodynamics and right heart hypertrophy index RVHI of rats were tested to determine whether compound 1 administered by aerosol inhalation has effects of improving monocrotaline-induced pulmonary hypertension.
(§1) SD rats (purchased from Shanghai Xipuer-Bikai Experimental Animal Co., Ltd.), male, weighing 180-200 g, were bred in an artificially controlled animal room with each 12 hours of light and darkness at a temperature of 20-25° C. and relative humidity of 50-60%, and allowed ad libitum to food and water. The rats were randomly divided into groups according to the experimental requirements, and kept separately in cages, with 3 to 4 rats per cage. All relevant operations of animal experiments are in compliance with the provisions of “Guidelines for the Management and Use of Laboratory Animals” of China.
In the second experiment, the rats were divided into 5 groups, namely the control group, model group, positive control Tyvaso (1.62 μg/kg) group, compound 1 (10 mg/kg) group and compound 1 (30 mg/kg) group. On the first day of the experiment, normal saline was injected subcutaneously into the back of the neck of the rats in the blank control group, and monocrotaline (Chengdu Purifa Biotechnology Co., Ltd.) solution was injected in the other groups at a dosage of 60 mg/kg. Compound 1 and Tyvaso were administered by aerosol inhalation, that is, the compound was firstly dissolved in physiological saline, and then the solution was prepared into an aerosol with a nebulizer to be inhaled into the mouth and nose of rats. The rats in the control group and the model group only inhaled an aerosol made of physiological saline. The rats were continuously administered for 28 days, and the concentration in the parentheses of the group name represents the administered concentration of the compound. Specific groupings can be found in Table 9. After the administration, the pulmonary vascular hemodynamics and RVHI were determined in the same way as the experiment method in Example 1.

[2] = tested on: hypoxic pulmonary hypertension model rats; test: Hypoxic pulmonary hypertension model rats, oral (gavage) treatment for 28 days; format: in vivo, SD rats; conditions: hypoxic PAH rats, 200 mg/kg, po
Method: An animal model of pulmonary hypertension in SD rats was established in a hypoxic and low-pressure environment, and compound 1 was administered by gavage at the same time for treatment. The rat pulmonary artery hemodynamics and right heart hypertrophy index RVHI were measured to determine whether compound 1 has effects of improving hypoxic pulmonary hypertension.
as §1
The hypoxic PAH model was established by placing SD male rats in a fully-automatically regulated low-pressure hypoxic chamber (atmospheric pressure of about 50 kPa, oxygen concentration of 10%) for 8 hours a day for 28 days. The rats in the blank control group were kept in a normoxic environment.
The experimental rats of hypoxic PAH model were divided into 8 groups, namely blank control group, model group, Sidenafil (25 mg/kg) group, compound 1 (10 mg/kg) group, compound 1 (25 mg/kg) group, compound 1 (50 mg/kg) group, compound 1 (100 mg/kg) group, and compound 1 (200 mg/kg) group. The concentration in the parentheses of the group name represents the administration concentration of the compound or drug. In hypoxia-induced PAH experiments, Sidenafil is often used as a positive drug, which can reduce the pulmonary artery pressure in rats and reduce the right ventricular hypertrophy and vascular remodeling. In this experiment, 25 mg/kg of Sidenafil was used as the positive drug. Both the positive drugs Sidenafil and Compound 1 were dissolved in physiological saline and formulated into solutions of different concentrations according to different administration concentrations. The rats were continuously administered for 28 days with an administration volume of 5 ml/kg. Rats in the control and model groups were given the corresponding volume of physiological saline solution via gavage. The specific grouping can be found in Table 5.
After the administration was completed, the POWERLAB biological information acquisition and treatment system was started, and the right cardiac catheter filled with 0.2% heparin sodium (Beijing Solo Technology Co. Ltd.) in normal saline was connected to the pressure transducer and then zero-calibrationed for use. After 20% urethane (Shanghai Yuanye Biotechnology Co., Ltd.) solution was injected into the abdominal cavity of the rats for anesthesia, the right neck hair was shaved and the right jugular vein was isolated and exposed. […] After the typical right ventricular waveform appeared and stabilized for a while, the waveform was recorded, and then the pressure value was read by Powerlab biological information acquisition and processing system (ADInstruments).
After the pressure was measured, the catheter was taken out, and the rat was dissected immediately to take out the heart and lung tissues. The right ventricle (RV) and the left ventricle and interventricular septum (LV+S) were separated and weighed, and the right heart hypertrophy index RVHI=RV/(LV+S) was calculated. The lung lobe tissue from the right lower part of the lung was separated, soaked in 4% paraformaldehyde (Sigma) for about 1 week to prepare a paraffin section with a thickness of 3 μm, and then conducted to hematoxylin-eosin staining (Wuhan Guge Biotechnology Co., Ltd.). […]

[3] = tested on: monocrotaline-induced pulmonary hypertension model rats (MCT-PAH); test: Monocrotaline-induced pulmonary hypertension model rats, oral (gavage) treatment for 21 days; format: in vivo, SD rats; conditions: 100 mg/kg
Text: Monocrotaline (MCT) was subcutaneously injected to establish an animal model of pulmonary hypertension in SD rats. At the same time, compound 1 was given by gavage for treatment. The pulmonary artery hemodynamics and right heart hypertrophy index RVHI of the rates were detected to determine whether the oral administration of compound 1 has effects of improving Monocrotaline induces pulmonary hypertension.
as §1
During the experiment, SD rats were randomly divided into 4 groups: blank control group, pulmonary hypertension model group, Selexipag (1 mg/kg) treatment group and compound 1 (100 mg/kg) group with 6 rats in each group, and the concentration in brackets represents the administration concentration of the compound, in which Selexipag is a new oral long-acting prostacyclin receptor agonist discovered and synthesized by Japan New Drug Co., Ltd. On the first day of the experiment, normal saline was injected subcutaneously into the back of neck of rats in the blank control group, and monocrotaline (Chengdu Purifa Biotechnology Co., Ltd.) solution was injected in the rats in other groups at a dosage of 60 mg/kg. Both the positive drug, Selexipag and Compound 1 were administered by gavage. Selexipag and […] were dissolved in 0.5% CMC-Na solution. The rats were continuously administered for 21 days with a volume of […]. The rats in the control and model groups were given the corresponding volume of CMC-Na solution by gavage. Specific groupings can be found in Table 7.
After the administration, the pulmonary vascular hemodynamics and RVHI was determined according to the same experiment method as that in Example 1.

[4] = tested on: spontaneously hypertensive rats (SHR); test: Antihypertensive activity test: blood pressure and heart rate of spontaneously hypertensive rats (SHR); format: in vivo, rat; conditions: 200 mg/kg; for SHR blood pressure (SBP), time after administration 1 h / SHR blood pressure (SBP), time after administration 2 h / SHR blood pressure (SBP), time after administration 3 h / SHR blood pressure (SBP), time after administration 4 h / SHR blood pressure (SBP), time after administration 5 h / SHR blood pressure (SBP), time after administration 6 h: n = 8
Procedure, shortened: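 Spontaneously hypertensive rats received compound at 200 mg/kg. SBP and heart rate were measured before and after dosing. A drop in SBP of ≥20 mmHg from baseline counted as effective, and heart-rate changes were tested by paired t-test (P<0.05).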

## OCC(O)c1cccc(F)c1 (stereo not shown) [Compound 7]
[1]
  2 × MT/ED: 0.375 ± 0.024
  RVHI: 0.267 ± 0.013
  RVSP: 44.61 ± 2.96 mmHg
  mPAP: 12.45 ± 2.41 mmHg
[2]
  2 × MT/ED: 0.291 ± 0.023
  RVHI: 0.261 ± 0.037
  RVSP: 62.78 ± 3.41 mmHg
  mPAP: 16.64 ± 2.08 mmHg
[3]
  2 × MT/ED: 0.27 ± 0.045
  RVHI: 0.33 ± 0.058
  RVSP: 42.31 ± 2.78 mmHg
  mPAP: 15.67 ± 2.70 mmHg
[4]
  SBP Difference before and after administration, 1 h: 16 mmHg
  SHR blood pressure (SBP), time after administration 1 h: 177 ± 9.56 mmHg
  SBP Difference before and after administration, 2 h: 21 mmHg
  SHR blood pressure (SBP), time after administration 2 h: 172 ± 7.36 mmHg
  SBP Difference before and after administration, 3 h: 22 mmHg
  SHR blood pressure (SBP), time after administration 3 h: 171 ± 4.07 mmHg
  SBP Difference before and after administration, 4 h: 20 mmHg
  SHR blood pressure (SBP), time after administration 4 h: 173 ± 6.18 mmHg
  SBP Difference before and after administration, 5 h: 18 mmHg
  SHR blood pressure (SBP), time after administration 5 h: 175 ± 5.63 mmHg
  SBP Difference before and after administration, 6 h: 13 mmHg
  SHR blood pressure (SBP), time after administration 6 h: 180 ± 7.61 mmHg

## COc1cccc(C(O)CO)c1 (stereo not shown) [Compound 8]
[1]
  2 × MT/ED: 0.353 ± 0.043
  RVHI: 0.306 ± 0.027
  RVSP: 45.92 ± 3.47 mmHg
  mPAP: 14.16 ± 3.84 mmHg
[2]
  2 × MT/ED: 0.277 ± 0.022
  RVHI: 0.296 ± 0.027
  RVSP: 62.50 ± 2.91 mmHg
  mPAP: 17.19 ± 3.65 mmHg
[3]
  2 × MT/ED: 0.31 ± 0.052
  RVHI: 0.33 ± 0.037
  RVSP: 45.97 ± 3.49 mmHg
  mPAP: 16.47 ± 3.07 mmHg
[4]; 0 h
  SBP Difference before and after administration, 0 h: 0 mmHg
[4]
  SBP Difference before and after administration, 1 h: 6 mmHg
  SHR blood pressure (SBP), time after administration 1 h: 188 ± 12.4 mmHg
  SBP Difference before and after administration, 2 h: 13 mmHg
  SHR blood pressure (SBP), time after administration 2 h: 181 ± 12.7 mmHg
  SBP Difference before and after administration, 3 h: 18 mmHg
  SHR blood pressure (SBP), time after administration 3 h: 176 ± 11.1 mmHg
  SBP Difference before and after administration, 4 h: 18 mmHg
  SHR blood pressure (SBP), time after administration 4 h: 176 ± 10.3 mmHg
  SBP Difference before and after administration, 5 h: 14 mmHg
  SHR blood pressure (SBP), time after administration 5 h: 180 ± 11.3 mmHg
  SBP Difference before and after administration, 6 h: 8 mmHg
  SHR blood pressure (SBP), time after administration 6 h: 186 ± 10.4 mmHg

## CCc1cccc(C(CO)OC2OC(CO)C(O)C(O)C2O)c1 (stereo not shown) [Compound 16]
[1]
  2 × MT/ED: 0.357 ± 0.032
  RVHI: 0.290 ± 0.054
  RVSP: 41.44 ± 2.03 mmHg
  mPAP: 14.76 ± 1.98 mmHg
[2]
  2 × MT/ED: 0.289 ± 0.030
  RVHI: 0.365 ± 0.031
  RVSP: 65.83 ± 3.26 mmHg
  mPAP: 18.60 ± 3.60 mmHg
[3]
  2 × MT/ED: 0.32 ± 0.066
  RVHI: 0.320 ± 0.031
  RVSP: 48.89 ± 6.64 mmHg
  mPAP: 16.74 ± 3.08 mmHg
[4]
  SBP Difference before and after administration, 1 h: 9 mmHg
  SHR blood pressure (SBP), time after administration 1 h: 174 ± 10.6 mmHg
  SBP Difference before and after administration, 2 h: 11 mmHg
  SHR blood pressure (SBP), time after administration 2 h: 172 ± 10.4 mmHg
  SBP Difference before and after administration, 3 h: 10 mmHg
  SHR blood pressure (SBP), time after administration 3 h: 173 ± 9.90 mmHg
  SBP Difference before and after administration, 4 h: 15 mmHg
  SHR blood pressure (SBP), time after administration 4 h: 168 ± 6.61 mmHg
  SBP Difference before and after administration, 5 h: 11 mmHg
  SHR blood pressure (SBP), time after administration 5 h: 172 ± 7.25 mmHg
  SBP Difference before and after administration, 6 h: 9 mmHg
  SHR blood pressure (SBP), time after administration 6 h: 174 ± 12.1 mmHg

## CCc1cccc(C(COC(C)=O)OC(C)=O)c1 (stereo not shown) [Compound 30]
[1]
  2 × MT/ED: 0.402 ± 0.034
  RVHI: 0.273 ± 0.043
  RVSP: 46.04 ± 3.27 mmHg
  mPAP: 16.00 ± 3.44 mmHg
[2]
  2 × MT/ED: 0.287 ± 0.025
  RVHI: 0.303 ± 0.0632
  RVSP: 62.14 ± 3.35 mmHg
  mPAP: 16.03 ± 5.35 mmHg
[3]
  2 × MT/ED: 0.31 ± 0.021
  RVHI: 0.245 ± 0.032
  RVSP: 44.38 ± 2.89 mmHg
  mPAP: 16.21 ± 1.29 mmHg
[4]
  SBP Difference before and after administration, 1 h: 4 mmHg
  SHR blood pressure (SBP), time after administration 1 h: 189 ± 7.54 mmHg
  SBP Difference before and after administration, 2 h: 5 mmHg
  SHR blood pressure (SBP), time after administration 2 h: 188 ± 3.69 mmHg
  SBP Difference before and after administration, 3 h: 8 mmHg
  SHR blood pressure (SBP), time after administration 3 h: 185 ± 10.11 mmHg
  SBP Difference before and after administration, 4 h: 20 mmHg
  SHR blood pressure (SBP), time after administration 4 h: 183 ± 9.66 mmHg
  SBP Difference before and after administration, 5 h: 5 mmHg
  SHR blood pressure (SBP), time after administration 5 h: 188 ± 14.9 mmHg
  SBP Difference before and after administration, 6 h: 5 mmHg
  SHR blood pressure (SBP), time after administration 6 h: 188 ± 8.64 mmHg
